Legend:
Details in all cases: 72 h
[1] = test system: myeloid leukemia patient primary cells Pat.15; test: cell viability (% survival relative to DMSO control); higher = less cytotoxic
How it was run: (§1)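 Mononuclear cells from patients with AML or CML were thawed, purified on Ficoll and placed in RPMI 1640 with 10% FBS at 10,000 cells/well on 384-well plates. The plates came pre-printed with 70 compounds at five tenfold concentrations spanning 1–10,000 nM, in duplicate, and cells were exposed for 72 h. CellTiter-Glo gave viability, scaled between DMSO wells and wells with 10 μM proteasome inhibitor. Where reported, area under the curve was obtained from log-logistic fits with four parameters using the drc and PharmacoGx R packages.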

[2] = test system: myeloid leukemia patient primary cells Pat.2; test: as above
How it was run: as §1

[3] = test system: myeloid leukemia patient primary cells Pat.7; test: as above
How it was run: as §1

[4] = test system: myeloid leukemia patient primary cells Pat.14; test: as above
How it was run: as §1

[5] = test system: myeloid leukemia patient primary cells Pat.1; test: as above
How it was run: as §1

[6] = test system: myeloid leukemia patient primary cells Pat.4; test: as above
How it was run: as §1

[7] = test system: myeloid leukemia patient primary cells Pat.10; test: as above
How it was run: as §1

[8] = test system: myeloid leukemia patient primary cells Pat.9; test: as above
How it was run: as §1

[9] = test system: myeloid leukemia patient primary cells Pat.6; test: as above
How it was run: as §1

[10] = test system: myeloid leukemia patient primary cells Pat.13; test: as above
How it was run: as §1

[11] = test system: myeloid leukemia patient primary cells Pat.11; test: as above
How it was run: as §1

[12] = test system: myeloid leukemia patient primary cells Pat.5; test: as above
How it was run: as §1

[13] = test system: myeloid leukemia patient primary cells Pat.12; test: as above
How it was run: as §1

[14] = test system: myeloid leukemia patient primary cells Pat.8; test: as above
How it was run: as §1

HL-60 = test: area under dose-response curve (viability, 1 nM-10 uM) (fraction (0-1)); higher = more sensitive
How it was run: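 HL-60 cells in RPMI 1640 with 10% FBS were rescreened against the full library on 384-well plates at five tenfold concentrations, 1–10,000 nM, in duplicate. Each screen was run with DMSO or 100 nM of one of three metabolic inhibitors, for 72 h at 37 °C, 5% CO2. Viability was read by CellTiter-Glo and normalised to DMSO and 10 μM proteasome-inhibitor wells. Where given, area under the curve came from four-parameter log-logistic fits (drc, PharmacoGx).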

Mono-Mac-6 = test: cell viability (% survival relative to DMSO control, bortezomib = 0%); higher = less cytotoxic
How it was run: (§2)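 Fifteen myeloid leukaemia cell lines (10 AML, 5 CML) were seeded at a density titrated to the linear growth range into 384-well plates pre-printed with compounds at 1, 10, 100, 1000 or 10000 nM in duplicate. Plates were incubated for 72 h at 37 °C with 5% CO2. Viability was then read by CellTiter-Glo luminescence. Each value is percent survival averaged over the duplicates, with vehicle set to 100% and a 10 µM positive control to 0%.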

HEL = test: as above
How it was run: as §2

SHI-1 = test: as above
How it was run: as §2

COC(=O)[C@]12CCC(C)(C)C[C@H]1[C@H]1C(=O)C=C3[C@@]4(C)C=C(C#N)C(=O)C(C)(C)[C@@H]4CC[C@@]3(C)[C@]1(C)CC2 [Bardoxolone methyl]
Details	area under dose-response curve, co-treatment: AZD3965 100 nM	area under dose-response curve, co-treatment: DMSO vehicle	area under dose-response curve, co-treatment: GSK2194069 100 nM	area under dose-response curve, co-treatment: pictilisib 100 nM	cell viability, 1 nM [%]	cell viability, 10 nM [%]	cell viability, 100 nM [%]	cell viability, 1000 nM [%]	cell viability, 10000 nM [%]
HEL	–	–	–	–	106	92.6	117	84.7	-0.0991
HL-60	0.0976	< 0.0301	0.0723	0.144	–	–	–	–	–
Mono-Mac-6	–	–	–	–	82.9	103	123	44.6	13.7
SHI-1	–	–	–	–	107	103	118	106	94.3
[1]	–	–	–	–	95.2	79.4	21.8	69	0.4
[2]	–	–	–	–	> 100	93.5	78.5	34.7	77.6
[3]	–	–	–	–	97.6	67.2	2.85	< 0	< 0
[4]	–	–	–	–	73.4	72.5	47	2.03	25.8
[5]	–	–	–	–	85.8	68.1	61.9	61.3	2.44
[6]	–	–	–	–	84.5	96.4	33.3	70	1.48
[7]	–	–	–	–	82.4	56	11.8	2.87	91.9
[8]	–	–	–	–	65.1	25.4	0.492	0.773	3.59
[9]	–	–	–	–	99.8	81.4	75	17.6	72.1
[10]	–	–	–	–	86.5	80.8	57.3	4.17	31.2
[11]	–	–	–	–	> 100	91.2	87.7	> 100	7.29
[12]	–	–	–	–	65.9	47.9	5.56	6.86	7.88
[13]	–	–	–	–	97.3	92.7	77.3	95.8	52.6
[14]	–	–	–	–	67.7	97.5	78.5	9.52	61.5

Cc1c(-c2ccc(-c3ccccc3F)cc2)nc2ccc(F)cc2c1C(=O)O [Brequinar]
Details	area under dose-response curve, co-treatment: pictilisib 100 nM	cell viability, 1 nM [%]	cell viability, 10 nM [%]	cell viability, 100 nM [%]	cell viability, 1000 nM [%]	cell viability, 10000 nM [%]
HEL	–	101	99.2	102	69	27.8
HL-60	< 0.0301	–	–	–	–	–
Mono-Mac-6	–	103	95.9	97.9	91.9	50.2
SHI-1	–	85.3	99	103	111	63.9
[1]	–	91.1	85.4	87.7	98.9	87.7
[2]	–	> 100	92.7	97.1	95.2	99.9
[3]	–	81.2	87.1	62	60.6	55.3
[4]	–	89.4	81.1	73.4	65.6	32.3
[5]	–	93.1	89.3	97.5	92.2	88.6
[6]	–	0.431	90.6	94.7	87.5	86.4
[7]	–	58.9	81.4	56.6	77.9	57.7
[8]	–	88.1	59.6	36.9	50	10.6
[9]	–	> 100	> 100	93.9	97.8	96.8
[10]	–	> 100	93.4	96.6	94.2	84.6
[11]	–	97.9	> 100	> 100	> 100	97.7
[12]	–	66.1	60.8	47.9	33.1	6.89
[13]	–	22	99	93.2	98.4	95
[14]	–	91.5	82	78	97.6	88.4

O=C1O/C(=C/Br)CCC1c1cccc2ccccc12 (centres undefined) [Bromoenol Lactone]
Details	area under dose-response curve, co-treatment: AZD3965 100 nM	area under dose-response curve, co-treatment: DMSO vehicle	area under dose-response curve, co-treatment: GSK2194069 100 nM	area under dose-response curve, co-treatment: pictilisib 100 nM	cell viability, 1 nM [%]	cell viability, 10 nM [%]	cell viability, 100 nM [%]	cell viability, 1000 nM [%]	cell viability, 10000 nM [%]
HEL	–	–	–	–	105	103	91.3	99.8	41.3
HL-60	< 0.0301	< 0.0301	< 0.0301	< 0.0301	–	–	–	–	–
Mono-Mac-6	–	–	–	–	98.4	102	93.8	95.6	52.7
SHI-1	–	–	–	–	102	92.9	108	91.2	83.2
[1]	–	–	–	–	89.3	91.6	96.4	89	3.92
[2]	–	–	–	–	96.5	> 100	97.2	93.6	29.4
[3]	–	–	–	–	57.6	75.8	76.4	30	< 0
[4]	–	–	–	–	78.2	83.5	73.9	21.8	< 0
[5]	–	–	–	–	68.2	90.4	79.3	69.3	14.6
[6]	–	–	–	–	64.7	93.3	85.8	53.4	3.26
[7]	–	–	–	–	63.6	47.6	46.5	10.6	< 0
[8]	–	–	–	–	66	39.3	46.4	5.6	0.492
[9]	–	–	–	–	91.1	89.2	> 100	86	33.1
[10]	–	–	–	–	80.2	89.3	89.3	82.2	28.1
[11]	–	–	–	–	> 100	94.6	99.2	87.7	57.2
[12]	–	–	–	–	44.7	34.4	7.92	1.18	2.24
[13]	–	–	–	–	100	> 100	92.4	90.9	33.9
[14]	–	–	–	–	75.9	91.1	70	81.3	30

— the supplement of paper PMC8671470
